Where only a bound is given, the exact number is not on record here.

One test has as its system SGC-7901. In words: Cytotoxicity against human SGC7901 cells after 48 hrs by MTT assay. Conditions: SGC-7901, 48 h. The test is classed as functional, cell-based. (In general: Tetrazolium dyes change colour on reduction, which living cells bring about.)
In general, IC50 refers to the concentration at which inhibition is half-maximal. Consider `CCOC(=O)[C@]1(C)CCC[C@@]2(C)[C@@H]3CC[C@@]4(C)C[C@]3(CC[C@@H]21)c1cn(C(=S)Nc2cccc(F)c2)nc14`, for which inhibition was half-maximal at 19.5 µM (IC50).
Consider `C[C@@]12CC[C@@H]3[C@@](CC[C@H]4[C@@]3(C)CCC[C@@]4(C)C(=O)O)(CC1=O)C2` [ISOSTEVIOL], for which the half-inhibitory concentration (IC50) was more than 50 µM.
In the case of `CCOC(=O)[C@]1(C)CCC[C@@]2(C)[C@@H]3CC[C@@]4(C)C[C@]3(CC[C@@H]21)c1cn(C(=S)Nc2ccc(Br)cc2)nc14`, the midpoint of inhibition, the IC50, lay at 7.06 µM.
In turn, `CCOC(=O)[C@]1(C)CCC[C@@]2(C)[C@@H]3CC[C@@]4(C)C[C@]3(CC[C@@H]21)c1cn(C(=S)Nc2cccc([N+](=O)[O-])c2)nc14` came in with a 50% inhibitory concentration (IC50) of 16 µM.
Turning to `CCOC(=O)[C@]1(C)CCC[C@@]2(C)[C@@H]3CC[C@@]4(C)C[C@]3(CC[C@@H]21)[C@@H]1CON(C(=S)Nc2ccc(Br)cc2)[C@@H]14`, the IC50 was more than 50 µM.
In turn, `CCOC(=O)[C@]1(C)CCC[C@@]2(C)[C@@H]3CC[C@@]4(C)C[C@]3(CC[C@@H]21)[C@@H]1CON(C(=S)Nc2ccccc2C)[C@@H]14` yielded an IC50 of 38.3 µM.
Turning to `CCOC(=O)[C@]1(C)CCC[C@@]2(C)[C@@H]3CC[C@@]4(C)C[C@]3(CC[C@@H]21)c1cn(C(=S)Nc2ccc(C)cc2)nc14`, the IC50 amounted to 14.7 µM.
For `CCOC(=O)[C@]1(C)CCC[C@@]2(C)[C@@H]3CC[C@@]4(C)C[C@]3(CC[C@@H]21)c1cn(C(=S)Nc2ccccc2F)nc14`, the 50% inhibitory concentration (IC50) turned out to be 20.7 µM.
Compound `CCOC(=O)[C@]1(C)CCC[C@@]2(C)[C@@H]3CC[C@@]4(C)C[C@]3(CC[C@@H]21)[C@@H]1CON(C(=S)Nc2ccc(C)cc2)[C@@H]14` came in with an IC50 of 37.2 µM.

Another test concerns A549. Nature of the test: Cytotoxicity against human A549 cells after 48 hrs by MTT assay. The test is classed as functional, cell-based. Conditions: A549, 48 h.
`CCOC(=O)[C@]1(C)CCC[C@@]2(C)[C@@H]3CC[C@@]4(C)C[C@]3(CC[C@@H]21)c1cn(C(=S)Nc2cccc(F)c2)nc14` came in with an IC50 of 33.8 µM.
Same read-out and setting: with `C[C@@]12CC[C@@H]3[C@@](CC[C@H]4[C@@]3(C)CCC[C@@]4(C)C(=O)O)(CC1=O)C2` [ISOSTEVIOL] the figure was more than 50 µM; with `CCOC(=O)[C@]1(C)CCC[C@@]2(C)[C@@H]3CC[C@@]4(C)C[C@]3(CC[C@@H]21)c1cn(C(=S)Nc2ccc(Br)cc2)nc14`, 24.5 µM.
Same read-out and setting: for `CCOC(=O)[C@]1(C)CCC[C@@]2(C)[C@@H]3CC[C@@]4(C)C[C@]3(CC[C@@H]21)c1cn(C(=S)Nc2cccc([N+](=O)[O-])c2)nc14` the value was more than 50 µM.
On the same count and under the same terms, with `CCOC(=O)[C@]1(C)CCC[C@@]2(C)[C@@H]3CC[C@@]4(C)C[C@]3(CC[C@@H]21)[C@@H]1CON(C(=S)Nc2ccc(Br)cc2)[C@@H]14` the figure was more than 50 µM; with `CCOC(=O)[C@]1(C)CCC[C@@]2(C)[C@@H]3CC[C@@]4(C)C[C@]3(CC[C@@H]21)[C@@H]1CON(C(=S)Nc2ccccc2C)[C@@H]14`, more than 50 µM; with `CCOC(=O)[C@]1(C)CCC[C@@]2(C)[C@@H]3CC[C@@]4(C)C[C@]3(CC[C@@H]21)c1cn(C(=S)Nc2ccc(C)cc2)nc14`, more than 50 µM.
With `CCOC(=O)[C@]1(C)CCC[C@@]2(C)[C@@H]3CC[C@@]4(C)C[C@]3(CC[C@@H]21)c1cn(C(=S)Nc2ccccc2F)nc14`, half-maximal inhibition (IC50) was put at 18.8 µM.
`CCOC(=O)[C@]1(C)CCC[C@@]2(C)[C@@H]3CC[C@@]4(C)C[C@]3(CC[C@@H]21)[C@@H]1CON(C(=S)Nc2ccc(C)cc2)[C@@H]14` came in with a concentration for half-maximal inhibition (IC50) of 45.8 µM.

Another test concerns Raji. In words: Cytotoxicity against human Raji cells after 48 hrs by MTT assay. It is filed as functional, cell-based.
Details: not given
For the compound `CCOC(=O)[C@]1(C)CCC[C@@]2(C)[C@@H]3CC[C@@]4(C)C[C@]3(CC[C@@H]21)c1cn(C(=S)Nc2cccc(F)c2)nc14`, the IC50 was found to be 23.7 µM.
Compound `C[C@@]12CC[C@@H]3[C@@](CC[C@H]4[C@@]3(C)CCC[C@@]4(C)C(=O)O)(CC1=O)C2` [ISOSTEVIOL] yielded an IC50 of more than 50 µM.
On the same count and under the same terms, for `CCOC(=O)[C@]1(C)CCC[C@@]2(C)[C@@H]3CC[C@@]4(C)C[C@]3(CC[C@@H]21)c1cn(C(=S)Nc2ccc(Br)cc2)nc14` the value was 13.9 µM.
On the same count and under the same terms, with `CCOC(=O)[C@]1(C)CCC[C@@]2(C)[C@@H]3CC[C@@]4(C)C[C@]3(CC[C@@H]21)c1cn(C(=S)Nc2cccc([N+](=O)[O-])c2)nc14` the figure was 16.9 µM.
The same measure, in the same setting: with `CCOC(=O)[C@]1(C)CCC[C@@]2(C)[C@@H]3CC[C@@]4(C)C[C@]3(CC[C@@H]21)[C@@H]1CON(C(=S)Nc2ccc(Br)cc2)[C@@H]14` the figure was more than 50 µM.
With `CCOC(=O)[C@]1(C)CCC[C@@]2(C)[C@@H]3CC[C@@]4(C)C[C@]3(CC[C@@H]21)[C@@H]1CON(C(=S)Nc2ccccc2C)[C@@H]14`, the concentration for half-maximal inhibition (IC50) was 24 µM.
On the same count and under the same terms, with `CCOC(=O)[C@]1(C)CCC[C@@]2(C)[C@@H]3CC[C@@]4(C)C[C@]3(CC[C@@H]21)c1cn(C(=S)Nc2ccc(C)cc2)nc14` the figure was 12.5 µM; with `CCOC(=O)[C@]1(C)CCC[C@@]2(C)[C@@H]3CC[C@@]4(C)C[C@]3(CC[C@@H]21)c1cn(C(=S)Nc2ccccc2F)nc14`, 11.1 µM.
On the same count and under the same terms, for `CCOC(=O)[C@]1(C)CCC[C@@]2(C)[C@@H]3CC[C@@]4(C)C[C@]3(CC[C@@H]21)[C@@H]1CON(C(=S)Nc2ccc(C)cc2)[C@@H]14` the value was 27.6 µM.

The subject of the next test is HeLa. In words: Cytotoxicity against human HeLa cells after 48 hrs by MTT assay. The test is classed as functional, cell-based.
Details: not given
For the compound `CCOC(=O)[C@]1(C)CCC[C@@]2(C)[C@@H]3CC[C@@]4(C)C[C@]3(CC[C@@H]21)c1cn(C(=S)Nc2cccc(F)c2)nc14`, the IC50 is more than 50 µM.
The same measure, in the same setting: with `C[C@@]12CC[C@@H]3[C@@](CC[C@H]4[C@@]3(C)CCC[C@@]4(C)C(=O)O)(CC1=O)C2` [ISOSTEVIOL] the figure was more than 50 µM; with `CCOC(=O)[C@]1(C)CCC[C@@]2(C)[C@@H]3CC[C@@]4(C)C[C@]3(CC[C@@H]21)c1cn(C(=S)Nc2ccc(Br)cc2)nc14`, more than 50 µM.
Still for that read-out and setting: for `CCOC(=O)[C@]1(C)CCC[C@@]2(C)[C@@H]3CC[C@@]4(C)C[C@]3(CC[C@@H]21)c1cn(C(=S)Nc2cccc([N+](=O)[O-])c2)nc14` the value was more than 50 µM; for `CCOC(=O)[C@]1(C)CCC[C@@]2(C)[C@@H]3CC[C@@]4(C)C[C@]3(CC[C@@H]21)[C@@H]1CON(C(=S)Nc2ccc(Br)cc2)[C@@H]14`, more than 50 µM; for `CCOC(=O)[C@]1(C)CCC[C@@]2(C)[C@@H]3CC[C@@]4(C)C[C@]3(CC[C@@H]21)[C@@H]1CON(C(=S)Nc2ccccc2C)[C@@H]14`, more than 50 µM.
Regarding `CCOC(=O)[C@]1(C)CCC[C@@]2(C)[C@@H]3CC[C@@]4(C)C[C@]3(CC[C@@H]21)c1cn(C(=S)Nc2ccc(C)cc2)nc14`, the IC50 is 40.5 µM.
On the same count and under the same terms, with `CCOC(=O)[C@]1(C)CCC[C@@]2(C)[C@@H]3CC[C@@]4(C)C[C@]3(CC[C@@H]21)c1cn(C(=S)Nc2ccccc2F)nc14` the figure was 47.5 µM.
Same read-out and setting: for `CCOC(=O)[C@]1(C)CCC[C@@]2(C)[C@@H]3CC[C@@]4(C)C[C@]3(CC[C@@H]21)[C@@H]1CON(C(=S)Nc2ccc(C)cc2)[C@@H]14` the value was more than 50 µM.

For the origin of these results see ChEMBL document CHEMBL2331181, “Synthesis and in vitro cytotoxic activity evaluation of novel heterocycle bridged carbothioamide type isosteviol derivatives as antitumor agents” (Bioorg Med Chem Lett, 2013).
